Converted amounts (≈) assume the structure as drawn. Like-named read-outs stand apart in the source and are kept apart here.
Legend:
PAF-induced eosinophilia = assay: PAF-induced pulmonary eosinophil accumulation after continuous subcutaneous dosing; type: in vivo, Sprague-Dawley rats; details: sc 1.0 mg/kg/day for six days, PAF-treated rats
Protocol: Male Sprague-Dawley rats, 400-600 g, were used in these studies.
The study described here used subcutaneous administration of norketotifen and ketotifen by Alzet® osmotic pumps. The rats were administered either RS-norketotifen hydrogen fumarate (1.0 mg/kg/day) or RS-ketotifen hydrogen fumarate (1.0 mg/kg/day) or saline. After five days of sc infusions of test articles and the vehicle, the animals were injected, i.p. with 10 μg PAF (platelet aggregating factor) in 0.25% bovine serum albumin (BSA) in saline. The subcutaneous infusions of test articles or vehicle were continued for another twenty-four hours and the animals were then sacrificed by intraperitoneal injections of a barbiturate. The tracheae of the euthanized animals were exposed and cannulated and aliquots (6×10 ml) of a Tyrode solution were successively introduced into the lungs and aspirated by gentle compression of the thorax. The total recovery of lung fluid was usually above 80%. The cell suspensions were concentrated by low speed centrifugation (200 g for 10 min) and the resulting cell pellet was resuspended in 1 ml of a Tyrode solution. Total cell counts were performed after dilution in Turks fluid, fixation in methanol and Leishman staining.
The study shown here used norketotifen, ketotifen, and saline (control) after continuous dosing with Alzet® Osmotic pumps.

[1] = Lung/plasma distribution of norketotifen in dogs; type: in vivo, Beagle dogs; details: for Post-dose Lung Concentration / Post-dose Plasma Concentration / Kp: dog; for Post-dose Lung Concentration / Post-dose Plasma Concentration: oral 8.0 mg/kg/day NK-FB for four days; for Kp: female, Beagle, lung/plasma, 11.46 mg/kg/day
Protocol: One group (N=3) of female Beagle dogs (8 to 10 kg/24 to 28 months) were administered racemic norketotifen hydrogen fumarate (RS-NK-HF) 11.46 mg/kg/day for 4 consecutive days. (11.46 mg of NK-HF is equal to 8.0 mg of the free base (RS-NK-FB).
Plasma samples were collected daily on Days 2, 3 and 4. The last blood samples were taken four hours after dosing on Day 4. Lung and plasma concentrations of norketotifen were determined using a qualified LC-MS-MS analytical method. LLQ was <0.5 ng/ml. Immediately after blood collection on Day 4, all animals were euthanized with an overdose of pentobarbital, administered intravenously, followed by exsanguination. Lung tissue samples (approximately 1 g each) were collected from each animal from the left and right pulmonary lobes, samples were trimmed and dried of any access blood using absorbent paper, weighed and then kept in conical tubes frozen on dry ice and stored at −80° C. pending analysis. Six samples from each animal (3 samples per side) were analyzed.

IL-10 = assay: PHA-induced release of IL-10 from human buffy coats; type: cell-based; details: PHA 5 μg/ml, 16 hours, inhibition
Protocol: (§1) The study was conducted in two phases. The first phase included optimization of the test methodology and included also dose-range finding studies, using buffy coats from 3 human donors, stimulated with phytohemagglutinin (PHA). The concentrations of the test article and the duration of exposure were optimized to obtain acceptable dose-response ratios. Following optimization of the test conditions, a final protocol was issued. In the Main Study, buffy coats from 5 healthy human male donors were stimulated with PHA, 5 μg/ml.
(§2) The inhibitory effects of three concentrations of NK and one concentration of ketotifen were evaluated in the Main Study. The buffy coats were resuspended in assay media and were pre-incubated for 30 min with either vehicle/saline, ketotifen (10 μM) or norketotifen (1.0; 10 or 100 μM). Following these preincubations, the white blood cell suspensions were stimulated for 16 hours with PHA, 5 μg/ml. The cell system supernatants were then harvested and stored frozen.

Klebsiella pnemoniae = assay: Antimicrobial activity (MIC), Klebsiella pnemoniae; type: cell-based; details: Bacteria: Kp, MIC refers to lethal concentrations
[2] = test system: Staphylococcus intermedius; assay: Antimicrobial activity (MIC), Staphylococcus intermedius; type: cell-based; details: Bacteria: Si, MIC refers to lethal concentrations
IL-6 = assay: PHA-induced release of IL-6 from human buffy coats; type: cell-based; details: PHA 5 μg/ml, 16 hours, inhibition
Protocol: as §1, §2

Staphylococcus aureus = assay: Antimicrobial activity (MIC), Staphylococcus aureus; type: cell-based; details: Bacteria: Sa, MIC refers to lethal concentrations
[3] = Lung/plasma distribution of norketotifen in rats; type: in vivo, SPD rats; details: for Kp: male, SPD, rat, lung/plasma, 20 mg/kg/day; for Lung Concentration / Plasma Concentration: rats
Protocol: Groups of male SPD rats (200-230 g) were administered racemic norketotifen hydrogen Fumarate 20 mg/kg/day (=14.4 mg/kg/day of the free base) for 10 consecutive days. Lung and plasma samples were collected and prepared and the concentrations of RS-norketotifen were determined using a qualified LC-MS-MS analytical method. LLQ (Lowest Level of Quantification) was <0.5 ng/ml.

Haemophilus influenza = assay: Antimicrobial activity (MIC), Haemophilus influenza; type: cell-based; details: Bacteria: Hi, MIC refers to lethal concentrations
sedation = details: art-accepted mouse model of sedation; U.S. Pat. Nos. 7,226,934 and 7,557,128; cited from earlier work
[4] = Dose Day 4, once daily oral 14.4 mg/kg free base
[5] = Dose Day 7, once daily oral 14.4 mg/kg free base
[6] = Last dose + 24 hrs, once daily oral 14.4 mg/kg free base for 10 days
[7] = Last dose, Day 10, once daily oral 14.4 mg/kg free base

Structure (SMILES): O=C1Cc2ccccc2C(=C2CCNCC2)c2ccsc21 (racemic) [norketotifen]
- Reduction of eosinophil counts below the baseline (saline control) level (PAF-induced eosinophilia): 26%
- Post-dose Lung Concentration ([1]; animal 001, Day 4): 23590 ng/g
- Post-dose Plasma Concentration ([1]; animal 001, Day 4): 301 ng/mL
- Post-dose Lung Concentration ([1]; animal 002, Day 4): 79546 ng/g
- Post-dose Plasma Concentration ([1]; animal 002, Day 4): 1651 ng/mL
- Post-dose Lung Concentration ([1]; animal 003, Day 4): 61093 ng/g
- Post-dose Plasma Concentration ([1]; animal 003, Day 4): 733 ng/mL
- Kp ([1]; oral, animal 001, Day 4, read-out: Lung / Plasma Ratio in Dogs): 78.4
- Kp ([1]; oral, animal 002, Day 4, read-out: Lung / Plasma Ratio in Dogs): 48.2
- Kp ([1]; oral, animal 003, Day 4, read-out: Lung / Plasma Ratio in Dogs): 83.3
- Kp ([1]; po, mean of three dogs, Day 4, once daily oral dosing, read-out: Lung / Plasma Ratio in Dogs, Mean ± SEM): 70
- Lung / Plasma Ratio in Dogs, Mean ± SEM ([1]; mean of three dogs, Day 4, once daily oral dosing, listed as NK): 70.0 ± 11.0
- Effect on PHA-induced release of IL-10 (%) (IL-10; 1 uM): 12.71^2%
- Effect on PHA-induced release of IL-10 (%) (IL-10; 10 uM): 24.80^2%
- Effect on PHA-induced release of IL-10 (%) (IL-10; 100 uM): 90.40^1%
- MIC (Klebsiella pnemoniae): 500 µg/mL (≈ 1690 µM)
- MIC [2]: 250 µg/mL (≈ 846 µM)
- Effect on PHA-induced release of IL-6 (%) (IL-6; 1 uM): 0.00%
- Effect on PHA-induced release of IL-6 (%) (IL-6; 10 uM): 33.13^1%
- Effect on PHA-induced release of IL-6 (%) (IL-6; 100 uM): 88.16^1%
- MIC (Staphylococcus aureus): 500 µg/mL (≈ 1690 µM)
- Kp ([3]; oral, Dose Day 4, read-out: Lung/Plasma Ratio in Rats): 133
- Kp ([3]; oral, Dose Day 7, read-out: Lung/Plasma Ratio in Rats): 92
- Kp ([3]; oral, Last dose + 24 hrs, read-out: Lung/Plasma Ratio in Rats): 107
- Kp ([3]; oral, Last dose, Day 10, read-out: Lung/Plasma Ratio in Rats): 79
- Kp ([3]; po, mean of the four study days, oral dosing, read-out: Lung/Plasma Ratio in Rats, Mean ± SEM): 103
- Lung/Plasma Ratio in Rats, Mean ± SEM ([3]; mean of the four study days, oral dosing): 100
- Lung/Plasma Ratio in Rats, Mean ± SEM ([3]; mean of the four study days, oral dosing, listed as NK): 103 ± 11.6
- Lung/Plasma Ratio in Rats, Mean ± SEM ([3]; mean of the four study days, oral dosing, listed as RS-norketotifen): ~100
- Lung Concentration [3, 4]: 23612 ng/g
- Plasma Concentration [3, 4]: 178 ng/mL
- Lung Concentration [3, 5]: 25355 ng/g
- Plasma Concentration [3, 5]: 276 ng/mL
- Lung Concentration [3, 6]: 890 ng/g
- Plasma Concentration [3, 6]: 8.3 ng/mL
- Lung Concentration [3, 7]: 18171 ng/g
- Plasma Concentration [3, 7]: 229 ng/mL
- MIC (Haemophilus influenza): about 0.25 mg/mL
- MIC (Haemophilus influenza; Haemophilus, read-out: MIC): 250 µg/mL (≈ 846 µM)
- Sedative effects (sedation): significant sedative effects

Reference: US10959992B2, “Methods of treatment of asthma and COPD” (Bridge Pharma, Inc., priority 2019, dated 2021)
